Laboratory results reported in paper PMC8279416, “Structural Fine-Tuning of Desmuramylpeptide NOD2 Agonists Defines Their In Vivo Adjuvant Activity” (Journal of Medicinal Chemistry, 2021).

Legend:
[1] = tested on: PBMCs; experiment: RNA sequencing of PBMCs, differential expression analysis; assay type: cell-based, human; conditions: 2 μM, 18 h; for Number of genes with significantly modulated expression: FDR <0.05, fold change >1.5 or <0.667 vs 0.1% DMSO; for Number of differentially expressed genes: down-regulated / Number of differentially expressed genes: up-regulated: vs 0.1% DMSO
Description: Based on the potent in vitro NOD2 activation by 68 and the PBMC cytotoxicity activation by 75, we explored the effects of 68 and 75 in terms of induction at the transcriptional level. Next-generation sequencing of RNA isolated from PBMCs was carried out following their stimulation for 18 h with 68 or 75 (2 μM). After applying a low expression filter, the remaining 19046 genes from the desmuramylpeptide-treated samples were compared to the vehicle-treated controls (0.1% DMSO).
Peripheral blood mononuclear cells from three independent donors were seeded (2 × 10^6 cells/mL) in 24-well plates in 1 mL of growth medium and treated with the compounds (2 μM) or vehicle (0.1% DMSO) for 18 h at 37 °C in 5% CO2. The cells were washed with phosphate-buffered saline, resuspended in RNAlater RNA stabilization solution (Sigma-Aldrich, St. Louis, MO, U.S.A.), and stored at −80 °C. RNA extraction, library construction, and sequencing were conducted by Genewiz (Leipzig, Germany).
Briefly, total RNA was extracted using the RNeasy mini kit (Qiagen, Hilden, Germany) according to the manufacturer protocol. RNA samples were quantified using Qubit 4.0 Fluorometer (Life Technologies, Carlsbad, CA, U.S.A.), and RNA integrity was checked with RNA Kit on a 5600 Fragment Analyzer (Agilent Technologies, Palo Alto, CA, U.S.A.). All RNA samples were of high quality with an RNA quality number of ≥9.4. RNA sequencing libraries were prepared using NEBNext Ultra II RNA library prep kit for Illumina according to the manufacturer instructions (New England Biolabs, Ipswich, MA, U.S.A.). Libraries were loaded on the Illumina NovaSeq 6000 instrument, and clustering was performed directly on the NovaSeq before sequencing according to the manufacturer instructions. The samples were sequenced using a 2 × 150 paired end configuration. Image analysis and base calling were conducted by the NovaSeq Control Software. Raw sequence data (.bcl files) generated from the Illumina NovaSeq were converted into fastq files and demultiplexed using Illumina’s bcl2fastq 2.19 software. One mismatch was allowed for index sequence identification. After investigating the quality of the raw data, sequence reads were trimmed to remove possible adapter sequences and nucleotides with poor quality using Trimmomatic v.0.36. The trimmed reads were mapped to the Homo sapiens reference genome as available on ENSEMBL, using STAR aligner v.2.5.2b, thus generating BAM files. Unique gene hit counts were calculated using feature counts from the Subread package v.1.5.2. Only unique reads that fell within exon regions were counted. After extraction of gene hit counts, the gene hit counts table was used for downstream differential expression analysis.
Differential expression analysis was performed with iDEP.91.[128] First, a low expression filter was applied (0.5 counts per million in at least 1 library). The remaining gene counts were normalized by counts per million in the EdgeR package, with a pseudocount of 4. Differential gene expression analysis was performed with the DESeq2 method, using a false discovery rate <0.05 and a gene expression fold change >1.5 or <0.667 as the cutoff values. The list of differentially expressed genes was then used as input for gene annotation and pathway enrichment analysis with Metascape.[94]

[2] = tested on: CD4+ T cells (OT II) cocultured with BMDCs; experiment: BMDC antigen presentation assay with ovalbumin-specific CD4+ T cells; assay type: cell-based, mouse; conditions: ovalbumin 50 μg/mL, 72 h coculture
Description: To evaluate the adjuvant potential of the two most-promising desmuramylpeptides, 68 and 75, in terms of their effects on DC-mediated activation of CD4^+ and CD8^+ T cells, we used an in vitro antigen-presentation assay with C57BL/6 mouse bone-marrow-derived DCs (BMDCs). Following stimulation with 68 and 75 (1 or 10 μM) in the presence of ovalbumin soluble protein (50 μg/mL), BMDCs were cocultured with carboxyfluorescein succinimidyl ester (CFSE)-labeled naive ovalbumin-specific CD4^+ or CD8^+ T cells, which were isolated from splenocytes of OT II and OT I transgenic mice, respectively. After 3 days of coculture, CD25 (α subunit of IL-2 receptor)[108] expression was determined, along with the CFSE dilution, as markers of T-cell activation and proliferation, respectively. Furthermore, we also examined how this desmuramylpeptide-induced priming of T cells affected the secreted cytokine profiles in BMDC/T-cell cocultures.
CD4^+ and CD8^+ T cells were purified from splenocytes of OT II and OT I transgenic mice using CD4^+ and CD8^+ T cell isolation kits (Miltenyi Biotec, Germany), according to manufacturer instructions. Purified T cells were stained with CFSE (Invitrogen, Carlsbad, CA, U.S.A.) and washed. Then, 5 × 10^4 T cells were mixed with 1 × 10^4 BMDCs per well (pretreated with desmuramylpeptides [1 or 10 μM] and 50 μg/mL ovalbumin [InvivoGen, San Diego, CA, U.S.A.] for 18 h, and then washed). […] The cells were stained with Fixable viability dye eFluor 780 (eBioscience, Thermo Fisher Scientific, MA, U.S.A.), anti-Thy1.2-PE-Cy7 antibodies (Biolegend, San Diego, CA, U.S.A.), anti-CD8-eFluor450 antibodies (eBioscience), anti-CD4-eFluor450 antibodies (eBioscience), and anti-CD25-APC antibodies (Biolegend) and analyzed using a Beckman Coulter Cytoflex S flow cytometer (CA, U.S.A.) and FlowJo software (Tree Star, Inc., Ashland, OR, U.S.A.). Live Thy1.2^+/CD4^+ and Thy1.2^+/CD8^+ were evaluated for CFSE dilution and CD25 expression. […] Statistical significance was determined by one-way ANOVA followed by Dunnett’s multiple comparisons test.

[3] = 10 μM, CD25 expression and CFSE dilution

| SMILES | Modulation of interferon-stimulated genes (ISGs) [1] | Number of genes with significantly modulated expression [1] | Number of differentially expressed genes: down-regulated [1] | Number of differentially expressed genes: up-regulated [1] | BMDC-mediated CD4+ T-cell activation and proliferation ([2]; 1 μM) | BMDC-mediated CD4+ T-cell activation and proliferation [2, 3] |
| --- | --- | --- | --- | --- | --- | --- |
| COc1cc(/C=C/C(=O)NCC(=O)N[C@H](C(=O)N[C@H](CCC(=O)OC2CCCC2)C(=O)OC2CCCC2)C(C)C)ccc1O [Compound 68, Dicyclopentyl ((E)-3-(4-Hydroxy-3-methoxyphenyl)acryloyl)glycyl-L-valyl-D-glutamate] | up-regulation of several interferon-stimulated genes | 445 genes | 215 genes | 230 genes | also showed this effect | significantly enhanced |
| CCCCCCCCCCCCCCCCCC(=O)Oc1ccc(/C=C/C(=O)NCC(=O)N[C@H](C(=O)N[C@H](CCC(=O)OCC)C(=O)OCC)C(C)C)cc1OC [Compound 75, Diethyl ((E)-3-(3-Methoxy-4-(stearoyloxy)phenyl)acryloyl)glycyl-L-valyl-D-glutamate] | – | 270 genes | 143 genes | 127 genes | – | significantly enhanced |
